According to ChEMBL document CHEMBL1132036, “Inhibition of E. coli growth by fullerene derivatives and inhibition mechanism” (Bioorg Med Chem Lett, 1999):

Legend:
Escherichia coli [1] = experiment: Compound was tested for inhibition of Escherichia coli dioxgen consumption.; type: functional
Escherichia coli [2] = experiment: Compound was tested for inhibition of Escherichia coli growth; type: functional, organism-based

SMILES: C[N+]12CCN(CC1)C13c4c5c6c7c8c4c4c1c1c9c%10c%11c%12c(c5c5c6c6c%13c%14c%15c%16c%17c%18c%19c%20c%21c%22c%23c%24c%25c(c-%16c(c8c%25c4c%24c1c%22c9c1c%21c4c%19c(c%18%14)c8c%13c5c%12c8c4c%111)C7C%156)C%17C%23%20)C%1032 (stereo not given)
- Dioxygen uptake rate (Escherichia coli [1]): 13.7 µM/min

SMILES: O=C(O)C1(C(=O)O)C23c4c5c6c7c8c9c%10c%11c%12c%13c%14c(c-5c5c%15c%16c(c%17c%18c2c2c4c7c4c8c7c%10c8c%10c%11c%11c%13c(c%14%15)c%13c%16c%14c%17c%15c%18c%16c2c4c2c7c8c4c(c%162)c%15c2c%14c%13c%11c%10c24)C513)C61C(C(=O)O)(C(=O)O)C9%121 (stereo not given)
- Dioxygen uptake rate (Escherichia coli [1]): 42.2 µM/min
- IC50 (Escherichia coli [2]): 100 µM

SMILES: C[N+]1(C)CC23c4c5c6c7c8c4c4c2c2c9c%10c%11c%12c(c5c5c6c6c%13c%14c%15c%16c%17c%18c%19c%20c%21c%22c%23c%24c%25c(c-%16c(c8c%25c4c%24c2c%22c9c2c%21c4c%19c(c%18%14)c8c%13c5c%12c8c4c%112)C7C%156)C%17C%23%20)C%103C1.C[N+]1(C)CC23c4c5c6c7c8c4c4c2c2c9c%10c%11c%12c(c5c5c6c6c%13c%14c%15c%16c%17c%18c%19c%20c%21c%22c%23c%24c%25c(c-%16c(c8c%25c4c%24c2c%22c9c2c%21c4c%19c(c%18%14)c8c%13c5c%12c8c4c%112)C7C%156)C%17C%23%20)C%103C1.[I-].[I-] (stereo not given)
- Dioxygen uptake rate (Escherichia coli [1]): 4.1 µM/min
- IC50 (Escherichia coli [2]): 5 µM
